Measured values published in patent publication US5602100A, “Dermorphin analogs having pharmacological activity” (priority 1988, dated 1997).
Non-standard residues stand in square brackets, D forms with d. Residues, ends and D or L forms follow the SMILES beside them. dNle = CCCC[C@@H](N)C(=O)O; dDab = NCC[C@@H](N)C(=O)O; dNva = CCC[C@@H](N)C(=O)O; Orn = NCCC[C@H](N)C(=O)O; Dab = NCC[C@H](N)C(=O)O

How the values were obtained:
δ-opioid receptor = target: T1, δ-opioid receptor (Rattus norvegicus, UniProt P33533); assay: biochemical; assay type: binding
T1 construct: displacement of the radioligands from the rat brain membrane preparations; from tissue; host or cells: rat brain membrane preparations
T1 sequence (P33533 whole entry): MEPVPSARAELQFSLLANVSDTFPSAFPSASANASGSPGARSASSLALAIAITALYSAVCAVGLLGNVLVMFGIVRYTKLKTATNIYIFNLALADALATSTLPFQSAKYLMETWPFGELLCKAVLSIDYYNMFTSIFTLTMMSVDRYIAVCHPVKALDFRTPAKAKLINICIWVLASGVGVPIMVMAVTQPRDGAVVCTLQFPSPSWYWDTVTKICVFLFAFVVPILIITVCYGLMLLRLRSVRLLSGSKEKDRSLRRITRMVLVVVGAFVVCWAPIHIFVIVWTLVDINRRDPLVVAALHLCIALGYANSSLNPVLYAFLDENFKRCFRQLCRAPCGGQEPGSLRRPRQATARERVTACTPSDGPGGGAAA

μ-opioid receptor = target: T2, μ-opioid receptor (Rattus norvegicus, UniProt P33535); assay: biochemical; assay type: binding
T2 construct: displacement of the radioligands from the rat brain membrane preparations; from tissue; host or cells: rat brain membrane preparations
T2 sequence (P33535 whole entry): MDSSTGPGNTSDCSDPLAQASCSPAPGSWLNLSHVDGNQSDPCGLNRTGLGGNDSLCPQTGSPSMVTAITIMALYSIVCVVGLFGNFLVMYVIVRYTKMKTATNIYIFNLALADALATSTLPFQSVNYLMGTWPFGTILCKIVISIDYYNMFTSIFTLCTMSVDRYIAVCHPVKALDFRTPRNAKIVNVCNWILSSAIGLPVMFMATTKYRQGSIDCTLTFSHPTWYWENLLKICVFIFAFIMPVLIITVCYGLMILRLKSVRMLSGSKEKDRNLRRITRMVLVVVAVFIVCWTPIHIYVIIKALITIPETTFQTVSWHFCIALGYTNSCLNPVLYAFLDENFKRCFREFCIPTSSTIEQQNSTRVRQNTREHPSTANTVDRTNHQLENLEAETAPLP

PBQ-induced writhing = assay: Mouse writhing test (PBQ); assay type: in vivo; settings: dose reducing the number of writhes by 50%
Protocol: The mouse writhing test detects both peripherally and centrally mediated analgesic effects. The test procedure is described in Siegmund et al., Proc. Soc. Exp. Biol. Med., 95, p. 729 (1957). In this test, a control group of albino mice was injected intraperitoneally with 0.3 ml/20 g body weight of a 0.02% solution of 2-phenyl-1,4-benzoquinone (PBQ). The writhing and contortional movements of the mice over the following 15 minutes were recorded. A second group of mice was given a dose of a synthetic dermorphin analog according to this invention, then allowed to wait a period of time before being administered the PBQ injection. The average number of writhes was then recorded and compared to the control group. The results of this test are expressed as the dosage of peptide that reduces the number of writhes by 50% at a given time interval (referred to as ED50).

hot plate stimulus = assay: Mouse hot plate test; assay type: in vivo
Protocol: The mouse hot plate test is an assay which only detects centrally-mediated analgesic effects. This test was carried out using the protocol described in G. Woolfe and A. MacDonald, J. Pharmacol. Exp. Ther., 80, p. 300 ([…]).
Since most of the peptides of the invention were not potent centrally, it was impossible to determine an ED50 value. […] A result is considered insignificant if 30% of mice or lower have responded.

Row | SMILES | Ki (δ-opioid receptor) [nM] | Ki (μ-opioid receptor) [nM] | Ki^δ /Ki^μ (μ-opioid receptor) | PBQ (20 min.) ED50 (PBQ-induced writhing) | % of animals showing a 50% increase (hot plate stimulus; dose 40 mg/kg, time 60 min.) [%] | % of animals showing a 50% increase (hot plate stimulus; dose 40 mg/kg, time 120 min.) [%] | % of animals showing a 50% increase (hot plate stimulus; dose 40 mg/kg, time 30 min.) [%] | % of animals showing a 50% increase (hot plate stimulus; dose 100 mg/kg, time 60 min.) [%] | % of animals showing a 50% increase (hot plate stimulus; dose 100 mg/kg, time 50 min.) [%] | Kd (δ-opioid receptor; read-out: Dissociation constant of radioligand) [nM]
1 | N=C(N)NCCC[C@H](NC(=O)[C@H](Cc1ccccc1)NC(=O)[C@@H](CCCNC(=N)N)NC(=O)[C@@H](N)Cc1ccc(O)cc1)C(N)=O [BCH-1766, H-Tyr-D-Arg-Phe-Arg-NH2] (H-Y[dR]FR-NH2) | 12000 | 98.8 | 121 | – | – | – | – | – | – | –
2 | NCC[C@H](NC(=O)[C@H](Cc1ccccc1)NC(=O)[C@@H](CO)NC(=O)[C@@H](N)Cc1ccc(O)cc1)C(N)=O [BCH-2469, H-Tyr-D-Ser-Phe-A2 bu-NH2] (H-Y[dS]F[Dab]-NH2) | 5480 | 5.11 | 1071.20 | 1.5 mg/kg | 90 | – | – | – | – | –
3 | NCCC[C@H](NC(=O)[C@H](Cc1ccccc1)NC(=O)[C@@H](CCN)NC(=O)[C@@H](N)Cc1ccc(O)cc1)C(N)=O [BCH-2580, H-Tyr-D-A2 bu-Phe-Orn-NH2] (H-Y[dDab]F[Orn]-NH2) | – | – | 411.98 | 1.2 mg/kg | 80 | – | – | – | – | –
4 | CC(C)C[C@@H](NC(=O)[C@@H](N)Cc1ccc(O)cc1)C(=O)N[C@@H](Cc1ccccc1)C(=O)N[C@@H](CCCN)C(N)=O [BCH-2459, H-Tyr-D-Leu-Phe-Orn-NH2] (H-Y[dL]F[Orn]-NH2) | 18600 | 77.5 | 240.10 | – | – | – | – | – | – | –
5 | C[C@@H](NC(=O)[C@@H](N)Cc1ccc(O)cc1)C(=O)N[C@@H](Cc1ccccc1)C(=O)N[C@@H](CCN)C(N)=O [BCH-2470, H-Tyr-D-Ala-Phe-A2 bu-NH2] (H-Y[dA]F[Dab]-NH2) | 3730 | 5.91 | 630.58 | 0.3 mg/kg | – | 90 | – | – | – | –
6 | CC(C)[C@@H](NC(=O)[C@@H](N)Cc1ccc(O)cc1)C(=O)N[C@@H](Cc1ccccc1)C(=O)N[C@@H](CCN)C(N)=O [BCH-2467, H-Tyr-D-Val-Phe-A2 bu-NH2] (H-Y[dV]F[Dab]-NH2) | 6280 | 2.64 | 1113.55 | 2 mg/kg | 90 | – | – | – | – | –
7 | C[C@@H](NC(=O)[C@@H](N)Cc1ccc(O)cc1)C(=O)N[C@@H](Cc1ccccc1)C(=O)N[C@@H](CCCN)C(N)=O [BCH-2219, H-Tyr-D-Ala-Phe-Orn-NH2] (H-Y[dA]F[Orn]-NH2) | 9880 | 10.7 | 924.51 | ~ 1 mg/Kg | – | – | 60 | – | – | –
8 | CC[C@@H](C)[C@@H](NC(=O)[C@@H](N)Cc1ccc(O)cc1)C(=O)N[C@@H](Cc1ccccc1)C(=O)N[C@@H](CCCN)C(N)=O [BCH-2456, H-Tyr-D-Ile-Phe-Orn-NH2] (H-Y[dI]F[Orn]-NH2) | 4280 | 4.49 | 952.35 | 0.6 mg/kg | 40 | – | – | 50 | – | –
9 | CC[C@@H](C)[C@@H](NC(=O)[C@@H](N)Cc1ccc(O)cc1)C(=O)N[C@@H](Cc1ccccc1)C(=O)N[C@@H](CCCCN)C(N)=O [BCH-2203, H-Tyr-D-Ile-Phe-Lys-NH2] (H-Y[dI]FK-NH2) | > 2530 | 7.49 | > 338 | 0.8 mg/kg | – | 80 | – | – | – | –
10 | NCCC[C@H](NC(=O)[C@H](Cc1ccccc1)NC(=O)[C@@H](Cc1ccccc1)NC(=O)[C@@H](N)Cc1ccc(O)cc1)C(N)=O [BCH-2457, H-Tyr-D-Phe-Phe-Orn-NH2] (H-Y[dF]F[Orn]-NH2) | 2460 | 7.39 | 333.37 | 1.8 mg/kg | 40 | – | – | – | – | –
11 | N=C(N)NCCC[C@@H](NC(=O)[C@@H](N)Cc1ccc(O)cc1)C(=O)N[C@@H](Cc1ccccc1)C(=O)N[C@@H](Cc1ccccc1)C(N)=O [BCH-2687, H-Tyr-D-Arg-Phe-Phe-NH2] (H-Y[dR]FF-NH2) | – | – | – | – | 70 | – | – | – | – | –
12 | NCCC[C@H](NC(=O)[C@H](Cc1ccccc1)NC(=O)[C@@H](CO)NC(=O)[C@@H](N)Cc1ccc(O)cc1)C(N)=O [BCH-2461, H-Tyr-D-Ser-Phe-Orn-NH2] (H-Y[dS]F[Orn]-NH2) | 15900 | 13.2 | 1210.57 | 0.7 mg/kg | – | – | 50 | – | – | –
13 | CCCC[C@@H](NC(=O)[C@@H](N)Cc1ccc(O)cc1)C(=O)N[C@@H](Cc1ccccc1)C(=O)N[C@@H](CCN)C(N)=O [BCH-2472, H-Tyr-D-Nle-Phe-A2 bu-NH2] (H-Y[dNle]F[Dab]-NH2) | 2130 | 10.2 | 207.88 | 0.8 mg/kg | 60 | – | – | – | – | –
14 | CC(C)[C@@H](NC(=O)[C@@H](N)Cc1ccc(O)cc1)C(=O)N[C@@H](Cc1ccccc1)C(=O)N[C@@H](CCCN)C(N)=O [BCH-2458, H-Tyr-D-Val-Phe-Orn-NH2] (H-Y[dV]F[Orn]-NH2) | 8780 | 13.3 | 658.27 | 1.0 mg/kg | – | – | 30 | 55 | – | –
15 | CC[C@@H](C)[C@@H](NC(=O)[C@@H](N)Cc1ccc(O)cc1)C(=O)N[C@@H](Cc1ccccc1)C(=O)N[C@@H](CCN)C(N)=O [BCH-2468, H-Tyr-D-Ile-Phe-A2 bu-NH2] (H-Y[dI]F[Dab]-NH2) | 2530 | 9.7 | 260.61 | 3 to 10 mg/kg | – | – | – | – | – | –
16 | NCC[C@H](NC(=O)[C@H](Cc1ccccc1)NC(=O)[C@@H](Cc1ccccc1)NC(=O)[C@@H](N)Cc1ccc(O)cc1)C(N)=O [BCH-2466, H-Tyr-D-Phe-Phe-A2 bu-NH2] (H-Y[dF]F[Dab]-NH2) | 1420 | 2.81 | 507.59 | 0.2 mg/kg | 80 | – | – | – | – | –
17 | N=C(N)NCCC[C@@H](NC(=O)[C@@H](N)Cc1ccc(O)cc1)C(=O)N[C@@H](Cc1ccccc1)C(=O)N[C@@H](CO)C(N)=O [BCH-2688, H-Tyr-D-Arg-Phe-Ser-NH2] (H-Y[dR]FS-NH2) | – | – | – | – | 100 | – | – | – | – | –
18 | NCCCC[C@H](NC(=O)[C@H](Cc1ccccc1)NC(=O)[C@@H](Cc1ccccc1)NC(=O)[C@@H](N)Cc1ccc(O)cc1)C(N)=O [BCH-2460, H-Tyr-D-Phe-Phe-Lys-NH2] (H-Y[dF]FK-NH2) | 1900 | 19 | 99.47 | ~ 3 mg/Kg | – | – | – | – | – | –
19 | CC(C)C[C@@H](NC(=O)[C@@H](N)Cc1ccc(O)cc1)C(=O)N[C@@H](Cc1ccccc1)C(=O)N[C@@H](CCCCN)C(N)=O [BCH-2207, H-Tyr-D-Leu-Phe-Lys-NH2] (H-Y[dL]FK-NH2) | > 2530 | 168 | > 15 | – | – | – | 20 | – | 0 | –
20 | CC(C)C[C@@H](NC(=O)[C@@H](N)Cc1ccc(O)cc1)C(=O)N[C@@H](Cc1ccccc1)C(=O)N[C@@H](CCN)C(N)=O [BCH-2474, H-Tyr-D-Leu-Phe-A2 bu-NH2] (H-Y[dL]F[Dab]-NH2) | 13100 | 69.8 | 186.98 | > 10 mg/kg | – | – | – | – | – | –
21 | CC(C)C[C@H](NC(=O)[C@H](Cc1ccccc1)NC(=O)CNC(=O)[C@@H](CO)NC(=O)[C@@H](N)Cc1ccc(O)cc1)C(=O)N[C@H](C(=O)O)[C@@H](C)O [[^3 H]DSLET, reference compound] | – | – | – | – | – | – | – | – | – | 2.6
22 | CCC[C@@H](NC(=O)[C@@H](N)Cc1ccc(O)cc1)C(=O)N[C@@H](Cc1ccccc1)C(=O)N[C@@H](CCN)C(N)=O [BCH-2471, H-Tyr-D-Nva-Phe-A2 bu-NH2] (H-Y[dNva]F[Dab]-NH2) | 441 | 0.56 | 790.51 | 0.2 mg/kg | 100 | – | – | – | – | –
